From patent US12005127B2, “DNA-PK inhibitors” (VERTEX PHARMACEUTICALS INCORPORATED, priority 2018, dated 2024)
pIC50: −log10 of the molar value.

Key:
DNA-PK [1] = target: T1, DNA-PK (Homo sapiens, UniProt P78527); test: DNA-PK cellular assay (pDNA-PK Ser2056 sandwich ELISA, NCS-induced DSBs); type: cell-based; set-up: endogenous in cells; host or cells: A549 (human NSCLC); settings: pDNA-PK (Ser2056) in A549 cells, NCS 50 ng/ml, 15 minutes
Excerpt: DNA-PK is recruited to and activated by double-strand breaks (DSB) in DNA and plays a critical role in the non-homologous end-joining (NHEJ) repair mechanism. Upon activation, DNA-PK undergoes rapid autophosphorylation at Ser2056. The measure of pDNA-PK (Ser2056) in response to DNA DSBs provides a cellular signaling assay to evaluate potential DNA-PK kinase inhibitors.
Neocarzinostatin (NCS) was used as a radiomimetic to induce DNA DSBs. The sandwich ELISA used the Meso Scale Discovery electrochemiluminescence technology platform which typically provides greater sensitivity than traditional ELISA formats.
A549 (human NSCLC) cells are plated at 25,000 cells/well in 100 uL of DMEM (Invitrogen cat #11995-040) supplemented with 1% Pen/Strep (Invitrogen cat #15070-063) and 10% FBS (Hyclone cat #SH30071.03HI) on black clear bottom 96 well plates (Costar #3904) and allowed to adhere overnight at 37° C. in 5% CO2. The following day, the compounds and NCS solutions are prepared by adding 100 ul of DMEM growth media per well in a Corning polypropylene V-bottom deep well plate (cat #3357). The HP Compound Dilution D300 instrument was used to add compounds to the appropriate wells using the setting logarithmic and 16-point titration singlet.
The DMEM NCS solution was prepared by adding NCS to DMEM media at 200 ng/ml (final assay concentration, 50 ng/ml). 100 ul of the DMEM/NCS solution is added to the wells with the compounds. 100 ul of this solution is then immediately added to the A549 cells. The cells are then incubated for 15 minutes at 37° C.
The complete lysis buffer is prepared by adding 1% Phosphatase inhibitor (Sigma cat #P2850) and 1% Protease Inhibitor (Sigma cat #P8340) to the Lanthascreen cellular assay lysis buffer (Invitrogen cat #PV5598). The media from the plate was removed by flicking and patting dry. 60 uL/well of the complete lysis buffer is added to each well. These plates are then incubated for at least 5 minutes in the lysis buffer at room temperature to ensure complete lysis. At this point the lysates can be transferred to prepared ELISA plates.
The prepared ELISA plates were prepared blocking the Mesoscale Goat-Anti-Mouse (GAM) plates with 150 uL/well of 3% Blocker A (Mesoscale cat #R93-BA) for one hour at room temperature with shaking. The capture antibody is prepared by diluting the mouse monoclonal anti-total DNA-PK (AbCAM cat #ab1832) to 3 ug/mL in 1% Blocker A. The blocked plates rinsed once with 200 uL D-PBS. The capture antibody (25 ul/well) was added to each well and allowed to incubate for an hour at room temperature while shaking. This was rinsed once with 200 ul D-PBS before adding 25 uL of the prepared cell lysate from the cell plates to the Mesoscale GAM ELISA plate. The lysate is then incubated on the plates for one hour at room temperature with shaking. The detection antibody (Epitomics rabbit anti-pS2056-DNA-PK) is prepared at a 1/1000 dilution (to a final concentration of 450 ng/mL) in 1% Blocker A. The GAM plates are washed once with 200 uL of D-PBS and then 25 uL/well of the detection antibody is added to the plate. This incubates for one hour at room temperature with shaking. The Sulfotag is prepared by adding Sulfo-Tag Goat-Anti-Rabbit antibody (Mesoscale cat #R32AB-1) at a 1/500 dilution (1 ug/mL) to 1% Blocker A. The GAM plates are washed with 200 uL of D-PBS and then 25 uL of the Sulfotag preparation is added to each well. Once the plates have been incubated with the final solution, the Sulfotag, for 1 hour, they are washed once with 200 uL of D-PBS. The 1× Read Buffer (Mesoscale cat #R32-TC) is made by diluting the 4× buffer in ddH20. 150 uL of 1× buffer is added to each well of the GAM plate and then the plate is read on the Sector Imager 2400. The readout (electrochemiluminescence) was plotted against the concentration of each compound and the IC50s were generated using Prism software (GraphPad Prism version 6.0e for Macintosh). […]

DNA-PK [2] = target: T1, DNA-PK; test: DNA-PK inhibition assay (radiometric 33P-ATP kinase assay); type: biochemical; settings: competitive tight-binding fit
Experimental: Compounds were screened for their ability to inhibit DNA-PK kinase using a standard radiometric assay. Briefly, in this kinase assay the transfer of the terminal ^33P-phosphate in ^33P-ATP to a peptide substrate is interrogated. The assay was carried out in 384-well plates to a final volume of 50 μL per well containing approximately 6 nM DNA-PK, 50 mM HEPES (pH 7.5), 10 mM MgCl2, 25 mM NaCl, 0.01% BSA, 1 mM DTT, 10 μg/mL sheared double-stranded DNA (obtained from Sigma), 0.8 mg/mL DNA-PK peptide (Glu-Pro-Pro-Leu-Ser-Gln-Glu-Ala-Phe-Ala-Asp-Leu-Trp-Lys-Lys-Lys, obtained from American Peptide), and 100 μM ATP. Accordingly, compounds of the invention were dissolved in DMSO to make 10 mM initial stock solutions. Serial dilutions in DMSO were then made to obtain the final solutions for the assay. A 0.75 μL aliquot of DMSO or inhibitor in DMSO was added to each well, followed by the addition of ATP substrate solution containing ^33P-ATP (obtained from Perkin Elmer). The reaction was started by the addition of DNA-PK, peptide and ds-DNA. After 45 min, the reaction was quenched with 25 μL of 5% phosphoric acid. The reaction mixture was transferred to MultiScreen HTS 384-well PH plates (obtained from Millipore), allowed to bind for one hour, and washed three times with 1% phosphoric acid. Following the addition of 50 μL of Ultima Gold™ high efficiency scintillant (obtained from Perkin Elmer), the samples were counted in a Packard TopCount NXT Microplate Scintillation and Luminescence Counter (Packard BioScience). The Ki values were calculated using Microsoft Excel Solver macros to fit the data to the kinetic model for competitive tight-binding inhibition. In Tables 1 and 2 below, Ki of less than 0.001 micromolar for the inhibition of DNA-PK is indicated as “A”; Ki of equal to or greater than 0.001 micromolar and less than 0.01 micromolar for the inhibition of DNA-PK as “B”; Ki of equal to or greater than 0.01 micromolar and less than 0.1 micromolar for the inhibition of DNA-PK as “C”; Ki of equal to or greater than 0.1 micromolar and less than 1 micromolar for the inhibition of DNA-PK for “D”; and Ki of equal to or greater than 1 micromolar as “E.”

| Compound | pIC50 (DNA-PK [1]; Table 1) | Ki (DNA-PK [2]; Table 1, 100 μM ATP) [µM] | pIC50 (DNA-PK [1]; Table 2) | Ki (DNA-PK [2]; Table 2, 100 μM ATP) [µM] |
| --- | --- | --- | --- | --- |
| COCC(=O)N[C@H]1CC[C@@H](Oc2cc(N3CCOCC3)cc3ncncc23)CC1 [Compound 20, 2-methoxy-N-((1s,4s)-4-((7-morpholinoquinazolin-5-yl)oxy)cyclohexyl)acetamide] | ≤ 6.00 | 0.001 to 0.01 |  |  |
| CC1(C(=O)N[C@H]2CC[C@@H](Oc3cc(N4CCOCC4)cc4ncncc34)CC2)CC1 [Compound 23, 1-methyl-N-((1s,4s)-4-((7-morpholinoquinazolin-5-yl)oxy)cyclohexyl)cyclopropane-1-carboxamide] | > 7.00 | < 0.001 |  |  |
| Cn1ccc(N[C@H]2CC[C@@H](Oc3cc(N4CCOCC4)cc4ncncc34)CC2)n1 [Compound 24, 1-methyl-N-((1s,4s)-4-((7-morpholinoquinazolin-5-yl)oxy)cyclohexyl)-1H-pyrazol-3-amine] | > 7.00 | < 0.001 |  |  |
| COc1ccc(COc2cc(N3CCOCC3)cc3nc[nH]c(=O)c23)cc1 [Compound 51, 5-[(4-methoxyphenyl)methoxy]-7-morpholino-3H-quinazolin-4-one] |  |  | ≤ 6.00 | 0.1 to 1 |
| COc1ccc(COc2cc(N3CCOCC3)cc3ncncc23)cc1 [Compound 52, 4-[5-[(4-methoxyphenyl)methoxy]quinazolin-7-yl]morpholine] |  |  | ≤ 6.00 | 0.001 to 0.01 |
| COc1ccc(COc2cc(N3CCOCC3)cc3ncnc(OC)c23)cc1 [Compound 53, 4-[4-methoxy-5-[(4-methoxyphenyl)methoxy]quinazolin-7-yl]morpholine] |  |  | ≤ 6.00 | 0.01 to 0.1 |
| COc1ccc(COc2cc(N3CCOCC3)cc3ncnc(C#N)c23)cc1 [Compound 55, 5-[(4-methoxyphenyl)methoxy]-7-morpholino-quinazoline-4-carbonitrile] |  |  | ≤ 6.00 | 0.001 to 0.01 |

Next, values leading:

| pIC50 (DNA-PK [1]; Table 1) | Ki (DNA-PK [2]; Table 1, 100 μM ATP) [µM] | pIC50 (DNA-PK [1]; Table 2) | Ki (DNA-PK [2]; Table 2, 100 μM ATP) [µM] | Compound |
| --- | --- | --- | --- | --- |
| > 7.00 | < 0.001 |  |  | CNC(=O)c1ccnc(N[C@H]2CC[C@@H](Oc3cc(N4CCOCC4)cc4ncnc(C)c34)CC2)n1 [Compound 13, N-methyl-2-[[4-(4-methyl-7-morpholino-quinazolin-5-yl)oxycyclohexyl]amino]pyrimidine-4-carboxamide] |
| > 7.00 | < 0.001 |  |  | CN1CCN(c2cc(N[C@H]3CC[C@@H](Oc4cc(N5CCOCC5)cc5ncncc45)CC3)ncn2)CC1 [Compound 14, 6-(4-methylpiperazin-1-yl)-N-[4-(7-morpholinoquinazolin-5-yl)oxycyclohexyl]pyrimidin-4-amine] |
| > 7.00 | < 0.001 |  |  | O=C(N[C@H]1CC[C@@H](Oc2cc(N3CCOCC3)cc3ncncc23)CC1)c1ccncn1 [Compound 15, N-[4-(7-morpholinoquinazolin-5-yl)oxycyclohexyl]pyrimidine-4-carboxamide] |
| > 7.00 | < 0.001 |  |  | O=C(N[C@H]1CC[C@@H](Oc2cc(N3CCOCC3)cc3ncncc23)CC1)C1CC1 [Compound 16, N-[4-(7-morpholinoquinazolin-5-yl)oxycyclohexyl]cyclopropanecarboxamide] |
| > 7.00 | < 0.001 |  |  | c1ncc2c(O[C@H]3CC[C@@H](Nc4ncnc5ccoc45)CC3)cc(N3CCOCC3)cc2n1 [Compound 17, N-[4-(7-morpholinoquinazolin-5-yl)oxycyclohexyl]furo[3,2-d]pyrimidin-4-amine] |
| > 7.00 | < 0.001 |  |  | CN1CCN(c2nccc(N[C@H]3CC[C@@H](Oc4cc(N5CCOCC5)cc5ncncc45)CC3)n2)CC1 [Compound 18, 2-(4-methylpiperazin-1-yl)-N-[4-(7-morpholinoquinazolin-5-yl)oxycyclohexyl]pyrimidin-4-amine] |
| > 7.00 | 0.001 to 0.01 |  |  | CNC(=O)c1ccnc(N[C@H]2CC[C@@H](Oc3cc(N4CCOCC4)cc4nc(C)ncc34)CC2)n1 [Compound 19] |
| > 7.00 | < 0.001 |  |  | CCOC(=O)N[C@H]1CC[C@@H](Oc2cc(N3CCOCC3)cc3ncncc23)CC1 [Compound 22, ethyl ((1s,4s)-4-((7-morpholinoquinazolin-5-yl)oxy)cyclohexyl)carbamate] |
